These results are taken from patent US11492335B2, “Aryl or heteroaryl triazolone derivatives or salts thereof, or pharmaceutical compositions comprising the same” (YUHAN CORPORATION, priority 2018, dated 2022).

Common to all, as to type: biochemical
The target in experiment [1] is T1, recombinant human MAO-A (monoamine oxidase-A) (Homo sapiens, UniProt P21397).
T1 construct: purchased Sigma-Aldrich
T1 sequence (P21397 1-527): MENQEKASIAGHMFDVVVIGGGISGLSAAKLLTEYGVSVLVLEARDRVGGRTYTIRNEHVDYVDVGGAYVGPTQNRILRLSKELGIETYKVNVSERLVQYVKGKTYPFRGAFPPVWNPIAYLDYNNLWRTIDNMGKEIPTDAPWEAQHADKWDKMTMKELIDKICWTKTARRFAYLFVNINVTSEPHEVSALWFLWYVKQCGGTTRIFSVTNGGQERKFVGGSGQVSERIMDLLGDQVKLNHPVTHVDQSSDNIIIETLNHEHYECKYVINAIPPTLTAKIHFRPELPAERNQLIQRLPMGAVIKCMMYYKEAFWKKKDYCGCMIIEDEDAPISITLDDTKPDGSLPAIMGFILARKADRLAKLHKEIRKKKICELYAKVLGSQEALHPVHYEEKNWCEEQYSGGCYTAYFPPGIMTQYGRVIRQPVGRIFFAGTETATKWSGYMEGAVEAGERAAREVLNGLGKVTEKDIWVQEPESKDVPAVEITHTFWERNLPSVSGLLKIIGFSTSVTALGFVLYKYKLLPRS
The experiment in a line: Activity on recombinant human MAO-A, Amplex Red method, 0.5 mM tyramine substrate. Conditions: read-out: Inhibitory Activity (IC50, nM) MAO-A. Put shortly: (§1)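 Enzyme preincubated with compound 30 min at 37 °C in 50 mM sodium phosphate pH 7.4, final DMSO below 1%. Substrate was 0.5 mM tyramine for MAO-A and 1 mM benzylamine for MAO-B, with 200 uM Amplex Red and 1 U/mL HRP. H2O2-coupled resorufin fluorescence (ex 544/em 590) followed over 1–2 h; 8-point 4-parameter IC50.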

The target of experiment [2] is T2, recombinant human MAO-B (monoamine oxidase-B) (Homo sapiens, UniProt P27338).
T2 construct: purchased Sigma-Aldrich
T2 sequence (P27338 1-520): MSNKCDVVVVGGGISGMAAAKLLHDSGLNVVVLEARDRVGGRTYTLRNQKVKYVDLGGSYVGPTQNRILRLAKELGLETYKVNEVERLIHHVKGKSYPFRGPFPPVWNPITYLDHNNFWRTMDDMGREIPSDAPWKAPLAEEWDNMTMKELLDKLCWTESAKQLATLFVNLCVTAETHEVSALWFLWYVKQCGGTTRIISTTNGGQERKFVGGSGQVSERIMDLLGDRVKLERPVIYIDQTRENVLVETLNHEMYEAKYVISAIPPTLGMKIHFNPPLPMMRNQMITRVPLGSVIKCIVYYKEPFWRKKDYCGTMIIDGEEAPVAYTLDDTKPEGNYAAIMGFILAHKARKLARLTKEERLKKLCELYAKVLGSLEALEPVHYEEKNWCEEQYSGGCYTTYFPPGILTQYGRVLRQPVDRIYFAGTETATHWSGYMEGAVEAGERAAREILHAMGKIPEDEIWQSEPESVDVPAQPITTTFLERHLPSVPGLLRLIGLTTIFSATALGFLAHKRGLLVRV
The experiment in a line: Activity on recombinant human MAO-B, Amplex Red method, 1 mM benzylamine substrate. Conditions: read-out: Inhibitory Activity (IC50, nM) MAO-B. Put shortly:
as §1

For a further experiment, the target named is T3, recombinant human VAP-1 (Homo sapiens, UniProt Q16853).
T3 construct: purchased R&D systems
T3 sequence (Q16853 1-763): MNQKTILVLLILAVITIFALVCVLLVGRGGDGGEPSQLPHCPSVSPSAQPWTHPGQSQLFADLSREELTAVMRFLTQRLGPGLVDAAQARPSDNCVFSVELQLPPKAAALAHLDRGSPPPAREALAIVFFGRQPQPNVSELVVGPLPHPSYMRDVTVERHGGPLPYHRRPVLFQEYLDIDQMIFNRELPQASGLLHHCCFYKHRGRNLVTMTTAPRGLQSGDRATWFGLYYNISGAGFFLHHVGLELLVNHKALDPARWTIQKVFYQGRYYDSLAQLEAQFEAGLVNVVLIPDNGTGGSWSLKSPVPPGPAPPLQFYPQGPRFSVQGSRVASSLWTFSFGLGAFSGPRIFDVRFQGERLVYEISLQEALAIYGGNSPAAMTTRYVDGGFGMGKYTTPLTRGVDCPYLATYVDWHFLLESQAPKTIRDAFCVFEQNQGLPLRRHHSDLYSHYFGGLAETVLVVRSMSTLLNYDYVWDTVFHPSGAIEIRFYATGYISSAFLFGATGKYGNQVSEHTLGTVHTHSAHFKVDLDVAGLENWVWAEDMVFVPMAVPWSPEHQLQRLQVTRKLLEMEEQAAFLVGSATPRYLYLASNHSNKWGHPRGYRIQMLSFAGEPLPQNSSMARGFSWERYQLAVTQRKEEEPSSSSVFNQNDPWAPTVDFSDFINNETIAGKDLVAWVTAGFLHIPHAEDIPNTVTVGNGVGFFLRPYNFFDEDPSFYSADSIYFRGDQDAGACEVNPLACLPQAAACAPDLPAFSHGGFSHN
As to the kind of experiment: Activity on recombinant human VAP-1, Amplex Red HRP-coupled hydrogen peroxide assay, benzylamine substrate. The conditions noted are these: recombinant human VAP-1, benzylamine substrate, read-out: Inhibitory Activity (IC50, nM) human VAP-1. Put shortly:
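Enzyme in 50 mM sodium phosphate pH 7.4 preincubated with compound 30 min at 37 °C, then 1 mM benzylamine, 200 µM Amplex Red and 1 U/mL HRP added. H2O2-derived resorufin fluorescence (ex 544/em 590 nm) followed over 1–2 h; signal-rate decrease versus DMSO control, 8-point curve, four-parameter logistic IC50.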

Experiment [3] has as its target T4, recombinant human DAO (diamine oxidase) (Homo sapiens, UniProt P19801).
T4 construct: purchased R&D systems
T4 sequence (P19801 20-751): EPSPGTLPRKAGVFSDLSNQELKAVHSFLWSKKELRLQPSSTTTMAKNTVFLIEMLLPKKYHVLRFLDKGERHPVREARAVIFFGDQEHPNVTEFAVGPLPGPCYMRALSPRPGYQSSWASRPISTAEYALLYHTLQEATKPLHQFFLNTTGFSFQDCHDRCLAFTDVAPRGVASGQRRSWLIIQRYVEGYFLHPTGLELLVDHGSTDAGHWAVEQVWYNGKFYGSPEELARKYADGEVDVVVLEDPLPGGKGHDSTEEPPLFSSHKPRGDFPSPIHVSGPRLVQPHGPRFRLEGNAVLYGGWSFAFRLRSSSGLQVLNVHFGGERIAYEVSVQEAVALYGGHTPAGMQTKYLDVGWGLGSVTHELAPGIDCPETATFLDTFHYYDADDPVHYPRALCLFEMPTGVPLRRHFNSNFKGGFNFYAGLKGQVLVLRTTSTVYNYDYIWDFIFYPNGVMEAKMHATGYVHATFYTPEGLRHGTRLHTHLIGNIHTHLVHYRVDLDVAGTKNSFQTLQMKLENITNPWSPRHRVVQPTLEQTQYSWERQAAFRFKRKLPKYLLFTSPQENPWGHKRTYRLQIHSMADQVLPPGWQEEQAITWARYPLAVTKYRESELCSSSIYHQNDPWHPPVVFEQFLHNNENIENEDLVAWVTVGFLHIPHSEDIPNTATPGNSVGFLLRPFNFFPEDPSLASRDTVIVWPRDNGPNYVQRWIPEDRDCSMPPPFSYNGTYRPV
As to the kind of experiment: Activity on recombinant human DAO, Amplex Red method, 1 mM putrescine substrate. The conditions noted are these: recombinant human DAO, read-out: Inhibitory Activity (IC50, nM) DAO. Put shortly:
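Inhibition of recombinant human DAO (diamine oxidase, R&D systems) was assessed with the Amplex Red Hydrogen Peroxide Assay Kit. Hydrogen peroxide produced from 1 mM putrescine was detected through an HRP-coupled reaction that converts Amplex Red into fluorescent resorufin, read at 544 nm excitation and 590 nm emission. IC50 values came from four-parameter logistic fits in GraphPad Prism.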

The mark [4] stands for this setting: 1 mM putrescine, * = between 10 and 100 nM, ** = between 300 and 1000 nM.

Where a name gives a salt, the structure may show the parent alone. Read-outs that look alike come from different tables or passages of the source. A value given as a limit tells only on which side of the number the result lay.

For the compound `CN(C)S(=O)(=O)c1ccc(-c2cccc(-n3cnn(C/C(=C/F)CN)c3=O)c2)cc1` [Example 55, 3′-{1-[(2E)-2-(aminomethyl)-3-fluoroprop-2-en-1-yl]-5-oxo-1,5-dihydro-4H-1,2,4-triazol-4-yl}-N,N-dimethylbiphenyl-4-sulfonamide hydrochloride], the IC50 was greater than 100000 nM in experiment [1] (0.5 mM tyramine), 1500 nM in experiment [2] (1 mM benzylamine), 0.3 nM at recombinant human VAP-1 (30 min preincubation at 37° C.) and 1 nM in experiment [3] (setting [4]).

In the case of `NC/C(=C/F)Cn1ncn(-c2ncc(-c3ccc4nonc4c3)s2)c1=O` [Example 234, 2-[(2Z)-2-(aminomethyl)-3-fluoroprop-2-en-1-yl]-4-[5-(2,1,3-benzooxadiazol-5-yl)-1,3-thiazol-2-yl]-2,4-dihydro-3H-1,2,4-triazol-3-one hydrochloride], the IC50 in experiment [1] (0.5 mM tyramine substrate) is less than 100 nM; in experiment [2] (1 mM benzylamine substrate), 10.1 nM; on recombinant human VAP-1 it was 0.98 nM; in experiment [3] (1 mM putrescine substrate) it was less than 100 nM.

With `NC/C(=C\F)Cn1ncn(-c2cccc(-c3ccc(Cl)nc3)c2)c1=O` [Example 85, 2-[(2E)-2-(aminomethyl)-3-fluoroprop-2-en-1-yl]-4-[3-(6-chloropyridin-3-yl)phenyl]-2,4-dihydro-3H-1,2,4-triazol-3-one hydrochloride], the IC50 in experiment [1] (0.5 mM tyramine) is greater than 100000 nM; in experiment [2] (1 mM benzylamine), 1800 nM; at recombinant human VAP-1 (30 min preincubation at 37° C.), 0.62 nM; in experiment [3] (setting [4]) it was less than 10 nM.

For the compound `Cc1ccc(-c2ccc3c(c2)OCO3)nc1-n1cnn(C/C(=C/F)CN)c1=O` [Example 213, 2-[(2E)-2-(aminomethyl)-3-fluoroprop-2-en-1-yl]-4-[6-(1,3-benzodioxol-5-yl)-3-methylpyridin-2-yl]-2,4-dihydro-3H-1,2,4-triazol-3-one hydrochloride], the IC50 in experiment [1] (0.5 mM tyramine substrate) is greater than 100000 nM; in experiment [2] (1 mM benzylamine substrate), greater than 10000 nM; on recombinant human VAP-1, 29 nM; in experiment [3] (1 mM putrescine substrate), 1800 nM.

For `NC/C(=C\F)Cn1ncn(-c2cccc(-c3ccc4c(c3)OCCO4)c2)c1=O` [Example 95, 2-[(2E)-2-(aminomethyl)-3-fluoroprop-2-en-1-yl]-4-[3-(2,3-dihydro-1,4-benzodioxin-6-yl)phenyl]-2,4-dihydro-3H-1,2,4-triazol-3-one hydrochloride], the IC50 in experiment [1] (0.5 mM tyramine) was greater than 100000 nM; in experiment [2] (1 mM benzylamine), 1460 nM; on recombinant human VAP-1 (30 min preincubation at 37° C.), 0.69 nM; in experiment [3] (setting [4]), 37 nM.

As to `Cc1cc(-n2cnn(C/C(=C/F)CN)c2=O)cnc1-c1ccc(-c2nc[nH]n2)cc1` [Example 115, 2-[(2E)-2-(aminomethyl)-3-fluoroprop-2-en-1-yl]-4-{5-methyl-6-[4-(1H-1,2,4-triazol-3-yl)phenyl]pyridin-3-yl}-2,4-dihydro-3H-1,2,4-triazol-3-one], the IC50 in experiment [1] (0.5 mM tyramine) was greater than 100000 nM; in experiment [2] (1 mM benzylamine), 980 nM; at recombinant human VAP-1 (30 min preincubation at 37° C.), 1.5 nM; in experiment [3] (setting [4]), less than 100 nM.

Consider `CC(=O)Nc1cc(-c2cccc(-n3cnn(C/C(=C\F)CN)c3=O)c2)ccn1` [Example 80, N-[4-(3-{1-[(2Z)-2-(aminomethyl)-3-fluoroprop-2-en-1-yl]-5-oxo-1,5-dihydro-4H-1,2,4-triazol-4-yl}phenyl)pyridin-2-yl]acetamide hydrochloride], for which the IC50 is greater than 100000 nM in experiment [1] (0.5 mM tyramine), greater than 10000 nM in experiment [2] (1 mM benzylamine), 1.1 nM at recombinant human VAP-1 (30 min preincubation at 37° C.) and 12 nM in experiment [3] (setting [4]).

As to `Cc1cc(-n2cnn(C/C(=C/F)CN)c2=O)cnc1-c1cccc(-c2nc[nH]n2)c1` [Example 116, 2-[(2E)-2-(aminomethyl)-3-fluoroprop-2-en-1-yl]-4-{5-methyl-6-[3-(1H-1,2,4-triazol-3-yl)phenyl]pyridin-3-yl}-2,4-dihydro-3H-1,2,4-triazol-3-one], the IC50 in experiment [1] (0.5 mM tyramine) is greater than 100000 nM; in experiment [2] (1 mM benzylamine), 6020 nM; at recombinant human VAP-1 (30 min preincubation at 37° C.), 0.72 nM; in experiment [3] (setting [4]), less than 100 nM.

Consider `NC/C(=C\F)Cn1ncn(-c2cccc(/C=C/c3cnc4[nH]c(=O)oc4c3)n2)c1=O` [Example 242, 6-[(E)-2-[6-[1-[(E)-2-(aminomethyl)-3-fluoro-allyl]-5-oxo-1,2,4-triazol-4-yl]-2-pyridyl]vinyl]-3H-oxazolo[4,5-b]pyridin-2-one hydrochloride], for which the IC50 was greater than 100000 nM in experiment [1] (0.5 mM tyramine substrate), greater than 10000 nM in experiment [2] (1 mM benzylamine substrate), 1.5 nM at recombinant human VAP-1 and 21 nM in experiment [3] (1 mM putrescine substrate).

On to `NC/C(=C\F)Cn1ncn(-c2cccc(C#Cc3cnc4c(c3)OCC(=O)N4)n2)c1=O` [Example 255, 7-[2-[6-[1-[(E)-2-(aminomethyl)-3-fluoro-allyl]-5-oxo-1,2,4-triazol-4-yl]-2-pyridyl]ethynyl]-4H-pyrido[3,2-b][1,4]oxazin-3-one], for which the IC50 in experiment [1] (0.5 mM tyramine substrate) was greater than 100000 nM; in experiment [2] (1 mM benzylamine substrate), 6100 nM; at recombinant human VAP-1 it was 0.2 nM; in experiment [3] (1 mM putrescine substrate), 20 nM.
